The values that follow come from patent US6451813B1, “Treatment of gastroparesis in certain patient groups” (R. T. Alamo Ventures I, LLC, priority 2001, dated 2002).

Data set [1] relates to PDE1 partially purified from bovine heart. Description: PDE1 biochemical enzyme assay ([3H]cAMP hydrolysis). The note with it: 100 μM; for % Inhibition of PDE1: Example 3. As for the experimental part: In this example, a racemic mixture of flosequinan and the (+) and (−) enantiomers of flosequinan were subjected to biochemical enzyme assays to determine their respective percent inhibition of a variety of phosphodiesterases (PDE1-PDE6). The reaction conditions for each PDE assay were as follows. PDE1: PDE1 partially purified from bovine heart was used. A racemic mixture of flosequinan, and each enantiomer of flosequinan, all at a molar concentration of 100 μM, were independently incubated with 13 μg PDE1 enzyme, 1.0 μM [^3H]cAMP and CaCl2/calmodulin in Tris buffer pH 7.5 for 20 minutes at 30° C. The reaction was terminated by boiling for 2 minutes, and the resulting AMP was converted to adenosine by addition of 10 mg/ml snake venom nucleotidase and further incubation at 30° C. for 10 minutes. Unhydrolyzed cAMP was bound to AGI-X2 resin, and the remaining [^3H]adenosine in the aqueous phase was quantitated by scintillation counting.

Data set [2] addresses T1, PDE6 partially purified from bovine retinal rod and activated by trypsin (Bos taurus, UniProt P11541+P23439).
T1 construct: from tissue; host or cells: bovine retinal rod
T1 sequence (P11541 2-856 limits assumed): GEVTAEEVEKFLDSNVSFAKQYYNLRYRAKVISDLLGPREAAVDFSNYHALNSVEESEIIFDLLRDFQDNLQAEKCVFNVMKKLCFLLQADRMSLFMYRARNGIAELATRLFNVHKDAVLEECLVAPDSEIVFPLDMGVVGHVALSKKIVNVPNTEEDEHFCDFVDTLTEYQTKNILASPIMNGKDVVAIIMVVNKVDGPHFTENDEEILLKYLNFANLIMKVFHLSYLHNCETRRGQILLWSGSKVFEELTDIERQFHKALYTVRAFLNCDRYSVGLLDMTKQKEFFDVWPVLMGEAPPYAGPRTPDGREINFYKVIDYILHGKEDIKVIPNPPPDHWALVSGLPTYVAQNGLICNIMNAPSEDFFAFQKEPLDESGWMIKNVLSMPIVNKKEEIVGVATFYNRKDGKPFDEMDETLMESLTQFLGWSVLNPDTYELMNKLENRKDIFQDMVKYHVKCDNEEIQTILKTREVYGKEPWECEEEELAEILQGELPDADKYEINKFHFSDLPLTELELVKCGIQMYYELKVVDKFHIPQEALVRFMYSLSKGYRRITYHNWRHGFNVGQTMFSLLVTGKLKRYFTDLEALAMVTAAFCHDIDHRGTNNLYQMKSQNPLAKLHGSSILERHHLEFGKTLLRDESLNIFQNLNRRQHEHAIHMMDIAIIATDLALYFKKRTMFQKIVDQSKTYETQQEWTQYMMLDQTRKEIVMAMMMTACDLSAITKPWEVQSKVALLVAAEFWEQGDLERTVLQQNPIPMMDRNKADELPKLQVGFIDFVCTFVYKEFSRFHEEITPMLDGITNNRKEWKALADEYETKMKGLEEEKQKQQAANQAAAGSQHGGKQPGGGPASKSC
T1 sequence (P23439 2-850 limits assumed): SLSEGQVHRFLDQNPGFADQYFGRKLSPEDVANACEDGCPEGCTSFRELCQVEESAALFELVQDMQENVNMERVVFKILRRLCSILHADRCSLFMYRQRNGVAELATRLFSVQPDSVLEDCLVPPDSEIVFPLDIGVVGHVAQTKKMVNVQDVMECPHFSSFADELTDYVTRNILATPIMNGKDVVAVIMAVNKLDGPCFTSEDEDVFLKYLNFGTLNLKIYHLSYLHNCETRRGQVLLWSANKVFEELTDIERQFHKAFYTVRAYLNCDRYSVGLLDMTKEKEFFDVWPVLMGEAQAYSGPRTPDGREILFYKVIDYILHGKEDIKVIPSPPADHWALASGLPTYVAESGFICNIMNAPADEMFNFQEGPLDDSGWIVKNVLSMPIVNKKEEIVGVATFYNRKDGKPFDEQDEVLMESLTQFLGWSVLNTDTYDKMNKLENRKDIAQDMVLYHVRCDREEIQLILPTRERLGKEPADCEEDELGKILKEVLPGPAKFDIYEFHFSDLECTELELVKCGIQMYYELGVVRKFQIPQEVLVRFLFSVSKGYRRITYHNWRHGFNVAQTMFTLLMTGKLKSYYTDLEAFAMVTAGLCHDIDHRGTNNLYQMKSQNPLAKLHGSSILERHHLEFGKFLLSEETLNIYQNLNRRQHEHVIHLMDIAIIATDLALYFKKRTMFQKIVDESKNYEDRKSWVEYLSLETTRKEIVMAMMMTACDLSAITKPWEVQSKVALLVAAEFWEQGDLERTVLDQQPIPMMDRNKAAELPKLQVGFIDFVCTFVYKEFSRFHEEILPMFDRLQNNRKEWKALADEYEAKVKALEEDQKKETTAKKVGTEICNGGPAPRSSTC
Description: PDE6 biochemical enzyme assay ([3H]cGMP hydrolysis). The note with it: Example 1; versus Viagra 0.3 μM.
Description: PDE6 partially purified from bovine retinal rod and activated by trypsin was used. […] Each reaction was terminated by raising the temperature to 100° C. for 2 minutes. The resulting GMP was converted to guanosine by addition of 10 mg/ml snake venom nucleotidase and further incubated at 30° C. for 10 minutes. Unhydrolyzed cGMP was bound to AGI-X2 resin, and [^3H]guanosine remaining in the aqueous phase was quantitated by scintillation counting.
PDE6: PDE6 partially purified from bovine retinal rod and activated by trypsin was used. […] Each reaction was terminated by boiling for 2 minutes. The resulting GMP was converted to guanosine by addition of 10 mg/ml snake venom nucleotidase, and further incubated at 30° C. for 10 minutes. Unhydrolyzed cGMP was bound to AGI-X2 resin, and [^3H]guanosine remaining in the aqueous phase was quantitated by scintillation counting.

For data set [3] the following is noted: cited from earlier work.
Data set [4] is described as follows: Solubility of flosequinan. Format: physicochemical. The note with it: water; organic solvents. The text has this: Thus, while the present invention is not limited by the form of oral administration, aqueous and organic solution of flosequinan for oral administration is contemplated. Likewise, flosequinan can be associated with a solid pharmaceutical carrier for solid oral administration (i.e., in pill form).

The target in data set [5] is T2, PDE3 partially purified from human platelets (Homo sapiens, UniProt Q14432).
T2 construct: PDE3 partially purified from human platelets was used; from tissue; host or cells: human platelets
Nature of the data set: PDE3 biochemical enzyme assay ([3H]cAMP hydrolysis). The note with it: 100 μM. On the procedure: PDE3: PDE3 partially purified from human platelets was used. A racemic mixture of flosequinan, and each enantiomer of flosequinan, all at a molar concentration of 100 μM, were independently incubated with 13 μg PDE3 enzyme and 1 μM cAMP containing 0.01 μM [^3H]cAMP in Tris buffer pH 7.5 for 20 minutes at 30° C. The reaction was terminated by boiling for 2 minutes, and the resulting AMP was converted to adenosine by addition of 10 mg/ml snake venom nucleotidase and further incubation at 30° C. for 10 minutes. Unhydrolyzed cAMP was bound to AGI-X2 resin, and the remaining [^3H]adenosine in the aqueous phase was quantitated by scintillation counting.

For data set [6] the following is noted: following oral administration; cited from earlier work.

T2 sequence (Q14432 whole entry): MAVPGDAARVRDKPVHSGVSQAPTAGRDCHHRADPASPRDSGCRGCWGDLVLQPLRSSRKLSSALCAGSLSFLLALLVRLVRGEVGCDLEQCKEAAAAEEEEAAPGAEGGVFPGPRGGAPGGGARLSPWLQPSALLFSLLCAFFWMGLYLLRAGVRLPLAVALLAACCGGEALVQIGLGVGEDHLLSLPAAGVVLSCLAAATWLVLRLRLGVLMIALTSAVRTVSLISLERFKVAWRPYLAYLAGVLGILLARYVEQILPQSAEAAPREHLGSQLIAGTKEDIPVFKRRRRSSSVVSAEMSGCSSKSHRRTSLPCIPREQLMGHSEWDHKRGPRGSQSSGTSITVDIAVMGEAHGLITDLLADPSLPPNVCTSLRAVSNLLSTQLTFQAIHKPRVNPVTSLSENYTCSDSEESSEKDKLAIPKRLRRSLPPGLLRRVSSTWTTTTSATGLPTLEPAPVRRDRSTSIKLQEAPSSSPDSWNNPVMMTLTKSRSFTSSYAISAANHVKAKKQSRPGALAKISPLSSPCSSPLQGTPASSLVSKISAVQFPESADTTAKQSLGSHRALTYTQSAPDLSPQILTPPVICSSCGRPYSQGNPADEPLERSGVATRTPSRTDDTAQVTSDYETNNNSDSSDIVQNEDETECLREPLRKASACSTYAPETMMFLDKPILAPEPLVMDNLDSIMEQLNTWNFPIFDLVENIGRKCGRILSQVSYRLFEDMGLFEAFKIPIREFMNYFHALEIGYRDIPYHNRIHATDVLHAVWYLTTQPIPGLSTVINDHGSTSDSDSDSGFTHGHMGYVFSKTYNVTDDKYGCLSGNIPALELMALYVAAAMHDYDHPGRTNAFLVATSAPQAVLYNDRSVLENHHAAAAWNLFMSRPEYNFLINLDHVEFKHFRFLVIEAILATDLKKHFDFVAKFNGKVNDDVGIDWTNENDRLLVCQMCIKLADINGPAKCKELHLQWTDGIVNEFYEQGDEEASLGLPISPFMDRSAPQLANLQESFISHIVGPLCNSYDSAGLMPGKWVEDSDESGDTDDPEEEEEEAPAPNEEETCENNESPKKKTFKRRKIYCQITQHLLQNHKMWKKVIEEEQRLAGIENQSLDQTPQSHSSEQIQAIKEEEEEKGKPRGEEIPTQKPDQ

For the compound `Cn1cc([S+](C)[O-])c(=O)c2ccc(F)cc21` (racemic) [Flosequinan, 7-fluoro-1-methyl-3-(methylsulphinyl)-4(1H)-quinolone], the “% Inhibition of PDE1” value in data set [1] turned out to be 31%. Further, the “times more compound on a molar basis than Viagra for around 50% inhibition of PDE6” value in data set [2] is recorded as “more than 300 times”. In addition, in data set [3] (following oral administration), the “time of peak plasma concentrations of flosequinan” value was 1 to 2 h. Also, the “time of peak metabolite plasma levels” value in data set [3] (following oral dosage of flosequinan) was “about seven”. The mean absolute bioavailability in data set [3] (oral, single dose of fifty milligrams) is 72%. Also, in data set [4], the solubility entry is “water soluble and is soluble in many organic solvents”.
`Cn1cc([S+](C)[O-])c(=O)c2ccc(F)cc21` (single isomer, unassigned; (-)) [(−)-flosequinan]: the “% Inhibition of PDE1” value in data set [1] is reported as 11%.
For the compound `Cn1cc([S@@+](C)[O-])c(=O)c2ccc(F)cc21` [(+)-flosequinan], in data set [5], the “PDE3 inhibitory activity compared with the (−) enantiomer of flosequinan” value is “more PDE1 and PDE3 inhibitory activity”. Also, in data set [1], the “PDE1 inhibitory activity compared with the (−) enantiomer of flosequinan” value is “more PDE1 and PDE3 inhibitory activity”; the “% Inhibition of PDE1” value came out at 28%.
For the compound `O=C1CCc2cc(OCCCCc3nnnn3C3CCCCC3)ccc2N1` [cilostazol, 6-[4-(1-cyclohexyl-1H-tetrazol-5-yl)butoxy]-3,4-dihydro-2(1H)-quinolinone], in data set [6], the “time of peak plasma concentrations of cilostazol” value was 2 to 4 h.
